According to US20100130477A1, “Spirocyclobutyl Piperidine Derivatives” (ASTRAZENECA AB, priority 2008, published 2010):
pIC50: −log10 of the molar value.

Biological target: T1, human Histamine H3 receptor (hH3R) (Homo sapiens, UniProt Q9Y5N1)
T1 construct: expressed in transfected cells; host or cells: CHO cells (Chinese Hamster Ovary); membranes
Experiment: GTPγS Binding Assay (antagonist activity, [35S]GTPγS, (R)-α-methyl histamine 30 nM)
Format: biochemical
Details: membranes from CHO cells expressing hH3R, 90 minutes at room temperature
Procedure: Guanosine 5′-O-(3-[^35S]thio)triphosphate [GTPγS] Binding Assay
A GTPγS binding assay can be used to investigate antagonist properties of compounds in CHO cells (Chinese Hamster Ovary) transfected with human Histamine H3 receptor (hH3R). Membranes from CHO cells expressing hH3R (10 μg/well) are diluted in GTPγS assay buffer (20 mM Hepes, 10 mM MgCl2, 100 mM NaCl, pH 7.4) and preincubated with saponine (3 μg/ml), GDP (10 μM) and PVT-WGA SPA beads (125 μg/well) (Amersham) for 30 minutes. To determine antagonist activity, (R)-α-methyl histamine (30 nM) is added in 96 well SPA plate with [^35S]GTPγS (0.2 nM) and various concentration of H3R antagonists. The GTPγS binding assay is started with addition of the mixture membrane/saponine/GDP and incubated for 90 minutes at room temperature. The amount of bound [^35S]GTPγS is determined by using the MicroBeta Trilux counter (PerkinElmer). The percentage of [^35S]GTPγS bound in each sample is calculated as a percentage of that bound control sample incubated in absence of H3 antagonist. Duplicate determinations are obtained for each concentration, and the data are analyzed using ExcelFit4 to obtain the IC50.

T1 sequence (Q9Y5N1 whole entry): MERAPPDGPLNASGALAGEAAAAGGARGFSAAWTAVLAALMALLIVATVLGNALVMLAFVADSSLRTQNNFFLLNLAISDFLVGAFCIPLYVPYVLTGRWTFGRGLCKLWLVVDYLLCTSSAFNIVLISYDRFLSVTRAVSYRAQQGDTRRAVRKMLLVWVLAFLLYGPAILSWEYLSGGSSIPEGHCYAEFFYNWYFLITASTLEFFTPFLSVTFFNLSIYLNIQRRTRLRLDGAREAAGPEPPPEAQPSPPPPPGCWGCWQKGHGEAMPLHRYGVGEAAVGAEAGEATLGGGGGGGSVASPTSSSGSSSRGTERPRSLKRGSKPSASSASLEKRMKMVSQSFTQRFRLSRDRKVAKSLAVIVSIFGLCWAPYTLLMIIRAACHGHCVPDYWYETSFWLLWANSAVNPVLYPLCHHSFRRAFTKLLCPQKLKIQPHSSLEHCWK

SMILES | pIC50
O=C(C1CC2(CCN(c3cccnc3)CC2)C1)N1CCN(C2CCC2)CC1 [Example 1, (4-cyclobutylpiperazin-1-yl)(7-(pyridin-3-yl)-7-azaspiro[3.5]nonan-2-yl)methanone] | 7.75
O=C(C1CC2(CCN(S(=O)(=O)c3ccccc3)CC2)C1)N1CCCN(C2CCC2)CC1 [Example 41, (4-cyclobutyl-1,4-diazepan-1-yl)(7-(phenylsulfonyl)-7-azaspiro[3.5]nonan-2-yl)methanone] | 8.06
O=C(C1CC2(CCN(c3cncnc3)CC2)C1)N1CCN(C2CCC2)CC1 [Example 67, (4-cyclobutylpiperazin-1-yl)(7-(pyrimidin-5-yl)-7-azaspiro[3.5]nonan-2-yl)methanone] | 7.64
Cc1cncc(C(=O)N2CCC3(CC2)CC(C(=O)N2CCCN(C4CCC4)CC2)C3)c1 [Example 46, (4-cyclobutyl-1,4-diazepan-1-yl)(7-(5-methylnicotinoyl)-7-azaspiro[3.5]nonan-2-yl)methanone] | 8.24
Cc1ccnc(C)c1C(=O)N1CCC2(CC1)CC(C(=O)N1CCN(C3CCC3)CC1)C2 [Example 11, (4-cyclobutylpiperazin-1-yl)(7-(2,4-dimethylnicotinoyl)-7-azaspiro[3.5]nonan-2-yl)methanone] | 7.77
O=C(C1CC2(CCN(c3ccccn3)CC2)C1)N1CCN(C2CCC2)CC1 [Example 2, (4-cyclobutylpiperazin-1-yl)(7-(pyridin-2-yl)-7-azaspiro[3.5]nonan-2-yl)methanone] | 7.57
O=C(c1ccccn1)N1CCC2(CC1)CC(C(=O)N1CCCN(C3CCC3)CC1)C2 [Example 42, (4-cyclobutyl-1,4-diazepan-1-yl)(7-picolinoyl-7-azaspiro[3.5]nonan-2-yl)methanone] | 7.82
N#Cc1ccc(C(=O)N2CCC3(CC2)CC(C(=O)N2CCN(C4CCC4)CC2)C3)nc1 [Example 15, 6-(2-(4-cyclobutylpiperazine-1-carbonyl)-7-azaspiro[3.5]nonane-7-carbonyl)nicotinonitrile] | 7.50
C[C@@H]1CN(C2CCC2)CCN1C(=O)C1CC2(CCN(S(C)(=O)=O)CC2)C1 [Example 62, ((R)-4-cyclobutyl-2-methylpiperazin-1-yl)(7-(methylsulfonyl)-7-azaspiro[3.5]nonan-2-yl)methanone] | 8.37

The next lines start with the values.

pIC50 | SMILES
7.53 | O=C(c1cnccc1Cl)N1CCC2(CC1)CC(C(=O)N1CCN(C3CCC3)CC1)C2 [Example 10, (7-(4-chloronicotinoyl)-7-azaspiro[3.5]nonan-2-yl)(4-cyclobutylpiperazin-1-yl)methanone]
7.21 | CC(C)N1CCN(C(=O)C2CC3(CCN(C(=O)c4ccncc4)CC3)C2)CC1 [Example 35, (7-isonicotinoyl-7-azaspiro[3.5]nonan-2-yl)(4-isopropylpiperazin-1-yl)methanone]
6.80 | Cc1cc(C(=O)N2CCC3(CC2)CC(C(=O)N2CCCN(C(C)C)CC2)C3)ccn1 [Example 53, (4-isopropyl-1,4-diazepan-1-yl)(7-(2-methylisonicotinoyl)-7-azaspiro[3.5]nonan-2-yl)methanone]
7.62 | COc1cc(C(=O)N2CCC3(CC2)CC(C(=O)N2CCN(C4CCC4)CC2)C3)ccn1 [Example 26, (4-cyclobutylpiperazin-1-yl)(7-(2-methoxyisonicotinoyl)-7-azaspiro[3.5]nonan-2-yl)methanone]
7.18 | Cc1cc(C(=O)N2CCC3(CC2)CC(C(=O)N2CCN(C(C)C)CC2)C3)ccn1 [Example 34, (4-isopropylpiperazin-1-yl)(7-(2-methylisonicotinoyl)-7-azaspiro[3.5]nonan-2-yl)methanone]
7.38 | Cc1ccncc1C(=O)N1CCC2(CC1)CC(C(=O)N1CCN(C3CCC3)CC1)C2 [Example 14, (4-cyclobutylpiperazin-1-yl)(7-(4-methylnicotinoyl)-7-azaspiro[3.5]nonan-2-yl)methanone]
7.25 | CC(C)N1CCCN(C(=O)C2CC3(CCN(S(C)(=O)=O)CC3)C2)CC1 [Example 52, (4-isopropyl-1,4-diazepan-1-yl)(7-(methylsulfonyl)-7-azaspiro[3.5]nonan-2-yl)methanone]
